Here are results for 29 compounds from patent US10882856B2 (BeiGene, Ltd., priority 2017, dated 2021).

Assay [1] addresses T1, IDO1 (Homo sapiens, UniProt P14902). In words: IDO1 enzymatic assay. In kind it is biochemical. The arrangement: His tag (N); made in house; host or cells: E. coli. As to conditions: read-out: Enzyme IC50 IDO1. In outline: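 Recombinant IDO1 carrying an N-terminal His tag and purified from E. coli was used at 50 nM with test compound, 1.3 mM D-tryptophan, 5 mM L-ascorbic acid, methylene blue and 0.4 mg/mL catalase in 50 mM potassium phosphate pH 7.5 containing 0.1% BSA. This mixture was incubated at 24 °C for 1.5 hours, after which N'-formylkynurenine formation was followed continuously at 321 nm for 1 hour and activity was taken as the slope. IC50 was derived from the enzyme activity remaining as compound concentration increased.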

Assay [2] has as its target T2, cellular TDO2 in HEK293-TDO2 cells (Homo sapiens, UniProt P48775).
T2 construct: expressed in transfected cells; host or cells: HEK293 (ATCC), stably transfected
In words: 293-TDO2 cell-based assay (Kyn colorimetric). As to conditions: 48 hours of incubation. In outline:
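Kyn formed from L-Trp was read colorimetrically at 480 nm (TCA deproteinisation, then 2% 4-(dimethylamino)benzaldehyde). Compounds were added to 293-TDO2 cells 4 h post-seeding and left 48 h at 37° C. A four-parameter logistic model gave IC50 values.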

Assay [3] deals with T1, IDO1. Put plainly: Hela cell-based IDO1 assay. The note with it: Hela cells. In outline:
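Kynurenine was measured at 480 nm in trichloroacetic acid-deproteinised supernatant after adding 2% 4-(dimethylamino)benzaldehyde. This supernatant came from HeLa cells seeded at 8000 per well in 96-well plates in phenol red-free DMEM with 10% FBS and, from 4 hours after seeding, exposed for 48 hours at 37 °C, 5% CO2 to DMSO-diluted compound dilutions, IFN-γ (final 100 ng/mL) and 0.4 mM L-Trp. The resulting data were fitted with a four-parameter logistic model in XLfit. Potency was taken from those fits.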

T1 sequence (P14902 whole entry): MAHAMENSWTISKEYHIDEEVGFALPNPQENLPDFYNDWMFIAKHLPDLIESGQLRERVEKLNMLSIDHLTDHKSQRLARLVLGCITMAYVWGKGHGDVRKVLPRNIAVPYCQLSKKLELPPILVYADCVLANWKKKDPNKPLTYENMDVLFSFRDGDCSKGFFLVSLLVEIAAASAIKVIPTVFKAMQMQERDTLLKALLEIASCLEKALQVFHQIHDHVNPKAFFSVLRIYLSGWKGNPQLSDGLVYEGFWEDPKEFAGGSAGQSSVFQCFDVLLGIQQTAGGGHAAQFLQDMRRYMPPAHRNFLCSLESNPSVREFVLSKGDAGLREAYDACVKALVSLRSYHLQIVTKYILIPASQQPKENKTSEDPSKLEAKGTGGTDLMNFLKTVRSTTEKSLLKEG
T2 sequence (P48775 whole entry): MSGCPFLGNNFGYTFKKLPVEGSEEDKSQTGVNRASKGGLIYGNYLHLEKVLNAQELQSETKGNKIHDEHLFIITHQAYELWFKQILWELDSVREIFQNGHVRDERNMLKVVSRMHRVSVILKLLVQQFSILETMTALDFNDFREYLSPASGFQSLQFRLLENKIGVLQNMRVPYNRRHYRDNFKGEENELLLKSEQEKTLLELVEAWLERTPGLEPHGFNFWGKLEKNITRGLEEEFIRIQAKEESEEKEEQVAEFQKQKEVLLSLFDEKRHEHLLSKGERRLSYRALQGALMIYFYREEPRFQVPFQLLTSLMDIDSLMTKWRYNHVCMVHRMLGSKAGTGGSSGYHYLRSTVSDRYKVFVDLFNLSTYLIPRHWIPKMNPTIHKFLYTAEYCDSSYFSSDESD

`O[C@@H](c1c(C2CC2)ccc2cncn12)C1CCN(c2ccc(F)cc2)CC1` (single isomer, unassigned) [Example D171b]: the IC50 – broadly, the concentration needed to halve the response being measured – in assay [1] was 8260 nM. The EC50 (usually the concentration that produces a half-maximal response) in assay [2] was > 10000 nM; in assay [3], 5740 nM.
Take `O[C@@H](c1c(C2CC2)ccc2cncn12)C1CCN(c2ccc(Cl)c3ncccc23)CC1` (single isomer, unassigned) [Example D178b]: the IC50 in assay [1] came out at 2300 nM. For the same compound, the EC50 in assay [2] is > 10000 nM; in assay [3] it was 1470 nM.
Consider `OC(c1c(C2CC2)ccn2cncc12)C1CCN(c2ccc(F)c3ncccc23)CC1` (stereo not drawn) [Example C149, (7-cyclopropylimidazo[1,5-a]pyridin-8-yl)(1-(8-fluoroquinolin-5-yl)piperidin-4-yl)methanol], for which the concentration for half-maximal inhibition (IC50) in assay [1] turned out to be 40 nM. Besides, the EC50 in assay [2] was > 10000 nM; in assay [3], 42 nM.
Consider `CC(C)c1ccc2cncn2c1[C@@H](O)[C@H]1CC[C@H](c2ccc(F)cc2)CC1` (single isomer, unassigned) [Example D166a], for which, in assay [1], the IC50 stood at 26 nM. For the same compound, the figures for the EC50 in assay [2] and in assay [3] were > 10000 nM and 14 nM, respectively.
The matching figures for `CNC(=O)c1ccc([C@H]2CC[C@H]([C@H](O)c3c(C4CC4)ccc4cncn34)CC2)cc1` (single isomer, unassigned) [Example D124a]: 19 nM, > 10000 nM and 138 nM.
The matching figures for `O=C(O)c1ccc([C@H]2CC[C@H]([C@@H](O)c3c(C4CC4)ccc4cncn34)CC2)cc1` (single isomer, unassigned) [Example D111b]: 1200 nM, > 10000 nM and > 10000 nM.
The matching figures for `OC(c1c(C2CC2)ccn2cncc12)C1CCN(c2ccc(F)cc2)CC1` (stereo not drawn) [Example C137, (7-cyclopropylimidazo[1,5-a]pyridin-8-yl)(1-(4-fluorophenyl)piperidin-4-yl)methanol]: 79 nM, > 10000 nM and 177 nM.
Turning to `CC(=O)COc1ccc([C@H]2CC[C@H]([C@H](O)c3c(C4CC4)ccc4cncn34)CC2)cc1` [Example D151, 1-(4-((1 S,4r)-4-((S)-(6-cyclopropylimidazo[1,5-a]pyridin-5-yl)(hydroxy)methyl)cyclohexyl)phenoxy)propan-2-one], the IC50 in assay [1] came out at 15 nM. The values for the EC50 in assay [2] and in assay [3] were > 10000 nM and 33 nM, respectively.
The matching figures for `O=C(O)c1ccc(N2CCC(C(O)c3c(C4CC4)ccn4cncc34)CC2)cc1` (stereo not drawn) [Example C145, 4-(4-((7-cyclopropylimidazo[1,5-a]pyridin-8-yl)(hydroxy)methyl)piperidin-1-yl)benzoic acid]: 90 nM, > 10000 nM and > 10000 nM.
For `OC(c1c(C2CC2)ccc2cncn12)C1CCC(c2ccccc2Cl)CC1` (stereo not drawn) [Example D117], the IC50 in assay [1] was 48 nM. Moreover, the results for the EC50 in assay [2] and in assay [3] were > 10000 nM and 275 nM, respectively.
The matching figures for `O[C@H](c1c(C2CC2)ccc2cncn12)C1CCN(c2cccc(Cl)c2)CC1` (single isomer, unassigned) [Example D173a]: 18 nM, > 10000 nM and 33 nM.
The matching figures for `NC(=O)c1ccc([C@H]2CC[C@H]([C@H](O)c3c(C4CC4)ccc4cncn34)CC2)cc1` [Example D153, 4-((1S,4r)-4-(S)-(6-cyclopropylimidazo[1,5-a]pyridin-5-yl(hydroxy)methyl)cyclohexyl)benzamide]: 11 nM, > 10000 nM and 145 nM.
The matching figures for `N#Cc1ccc(C2CCC(C(O)c3c(C4CC4)ccn4cncc34)CC2)cc1` (racemic) [Example C106, 4-(4-((7-cyclopropylimidazo[1,5-a]pyridin-8-yl)(hydroxy)methyl)cyclohexyl)benzonitrile]: 50 nM, > 10000 nM and 429 nM.
For `OC(c1c(C2CC2)ccc2cncn12)[C@H]1CC[C@H](c2ccc(C(F)(F)F)nc2)CC1` (single isomer, unassigned) [Example D107a], the IC50 in assay [1] stood at 36 nM. In addition, the EC50 was > 10000 nM in assay [2] and 1260 nM in assay [3].
For `N#Cc1ccc([C@H]2CC[C@H]([C@@H](O)c3c(C4CC4)ccc4cncn34)CC2)cc1` (single isomer, unassigned) [Example D110b], the IC50 in assay [1] was > 10000 nM. For the same compound, the EC50 in assay [2] and in assay [3] was > 10000 nM in each case.
As for `OC(c1c(C2CC2)ccn2cncc12)C1CCN(c2ccccn2)CC1` (stereo not drawn) [Example C146, (7-cyclopropylimidazo[1,5-a]pyridin-8-yl)(1-(pyridin-2-yl)piperidin-4-yl)methanol], the 50% inhibitory concentration (IC50) in assay [1] was found to be 47 nM. For the same compound, the concentration giving a half-maximal response (EC50) in assay [2] was > 10000 nM; in assay [3] it was 2230 nM.
The matching figures for `Oc1ccc(C2CCC(C(O)c3c(C4CC4)ccc4cncn34)CC2)cc1` (stereo not drawn) [Example D106, 4-(4-((6-cyclopropylimidazo[1,5-a]pyridin-5-yl)(hydroxy)methyl)cyclohexyl)phenol]: 30 nM, > 10000 nM and 68 nM.
The matching figures for `N#Cc1ccc(N2CCC(C(O)c3c(C4CC4)ccn4cncc34)CC2)cc1` (single isomer, unassigned) [Example C144a]: 19 nM, > 10000 nM and 476 nM.
Consider `OC(c1c(C2CC2)ccn2cncc12)C1CCC(c2ccc3ccccc3c2)CC1` (stereo not drawn) [Example C122, (7-cyclopropylimidazo[1,5-a]pyridin-8-yl)(4-(naphthalen-2-yl)cyclohexyl)methanol], for which the IC50 in assay [1] amounted to 74 nM. The EC50 in assay [2] was > 10000 nM; in assay [3], 382 nM.
The matching figures for `OC(c1c(C2CC2)ccn2cncc12)C1CCN(c2ccccc2)CC1` (single isomer, unassigned) [Example C136b]: 5400 nM, > 10000 nM and > 10000 nM.
The matching figures for `Oc1ccc([C@H]2CC[C@H]([C@@H](O)c3c(C4CC4)ccc4cncn34)CC2)cc1` [Example D106b, 4-((1R,4r)-4-((R)-(6-cyclopropylimidazo [1,5-a]pyridin-5-yl)(hydroxy)methyl)cyclohexyl)phenol]: 1100 nM, > 10000 nM and 2580 nM.
`COc1cccc(C2CCC(C(O)c3c(C4CC4)ccn4cncc34)CC2)c1` (stereo not drawn) [Example C114, (7-cyclopropylimidazo[1,5-a]pyridin-8-yl)(4-(3-methoxyphenyl)cyclohexyl)methanol]: the IC50 in assay [1] came to 51 nM. In addition, the values for the EC50 in assay [2] and in assay [3] were > 10000 nM and 195 nM, respectively.
The matching figures for `OC(c1c(C2CC2)ccc2cncn12)C1CCC(c2cccc(Cl)c2)CC1` (stereo not drawn) [Example D116, (4-(3-chlorophenyl)cyclohexyl)(6-cyclopropylimidazo[1,5-a]pyridin-5-yl)methanol]: 44 nM, > 10000 nM and 107 nM.
The matching figures for `OC(c1c(C2CC2)ccn2cncc12)C1CCC(c2cccc(F)c2)CC1` (racemic) [Example C109, (7-cyclopropylimidazo[1,5-a]pyridin-8-yl)(4-(3-fluorophenyl)cyclohexyl)methanol]: 87 nM, > 10000 nM and 100 nM.
The matching figures for `OC(c1c(C2CC2)ccc2cncn12)C1CCC(c2ccnc3ccc(F)cc23)CC1` (stereo not drawn) [Example D150, (6-cyclopropylimidazo[1,5-a]pyridin-5-yl)(4-(6-fluoroquinolin-4-yl)cyclohexyl)methanol]: 36 nM, > 10000 nM and 37 nM.
With `O[C@@H](c1c(C2CC2)ccn2cncc12)[C@H]1CC[C@H](c2ccc(C(F)(F)F)cc2)CC1` (single isomer, unassigned) [Example C115b], the IC50 in assay [1] is > 10000 nM. In addition, the EC50 was > 10000 nM in assay [2] and 9450 nM in assay [3].
On to `O[C@H](c1c(C2CC2)ccc2cncn12)[C@H]1CC[C@@H](c2ccc(OC3CCOCC3)cc2)CC1` [Example D114d, (S)-(6-cyclopropylimidazo[1,5-a]pyridin-5-yl)((1 s,4R)-4-(4-((tetrahydro-2H-pyran-4-yl)oxy)phenyl)cyclohexyl)methanol], for which the IC50 in assay [1] came out at 1400 nM. For the same compound, the values for the EC50 in assay [2] and in assay [3] were > 10000 nM and 5110 nM, respectively.
The matching figures for `CC(C)c1ccc2cncn2c1C(O)C1CCC(c2cccc(Cl)c2)CC1` (stereo not drawn) [Example D168, (4-(3-chlorophenyl)cyclohexyl)(6-isopropylimidazo[1,5-a]pyridin-5-yl)methanol]: 38 nM, > 10000 nM and 42 nM.
The matching figures for `COc1ccc(C2CCC(C(O)c3c(C4CC4)ccc4cncn34)CC2)cc1Cl` (stereo not drawn) [Example D148, (4-(3-chloro-4-methoxyphenyl)cyclohexyl)(6-cyclopropylimidazo[1,5-a]pyridin-5-yl)methanol]: 40 nM, > 10000 nM and 188 nM.
